Experimental data as given in the supplement of paper PMC10307832.

Key:
Test in all cases: relative viability (nuclei count vs DMSO), 5 days (fraction); higher = more cells survive
Pemetrexed + Luminespib = compound: Nc1nc2[nH]cc(CCc3ccc(C(=O)N[C@@H](CCC(=O)O)C(=O)O)cc3)c2c(=O)[nH]1 [Pemetrexed] + CCNC(=O)c1noc(-c2cc(C(C)C)c(O)cc2O)c1-c1ccc(CN2CCOCC2)cc1 [Luminespib] (partner 0.01 µM)
Outline: (§1)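 Dosing by pin tool came one day after lung cancer cell lines were seeded in 1536-well plates, using either one drug or a fixed anchor-drug dose plus five library-drug doses (not always all listed) in √10 steps. After 5 days, nuclei were counted on 4× images. Relative viability is treated-well nuclei count divided by vehicle-well nuclei count, and values are medians of duplicate plates.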

Pemetrexed + Lapatinib = compound: Nc1nc2[nH]cc(CCc3ccc(C(=O)N[C@@H](CCC(=O)O)C(=O)O)cc3)c2c(=O)[nH]1 [Pemetrexed] + CS(=O)(=O)CCNCc1ccc(-c2ccc3ncnc(Nc4ccc(OCc5cccc(F)c5)c(Cl)c4)c3c2)o1 [Lapatinib] (partner 2 µM)
Outline: as §1

Pemetrexed + Linsitinib = compound: Nc1nc2[nH]cc(CCc3ccc(C(=O)N[C@@H](CCC(=O)O)C(=O)O)cc3)c2c(=O)[nH]1 [Pemetrexed] + C[C@]1(O)C[C@@H](c2nc(-c3ccc4ccc(-c5ccccc5)nc4c3)c3c(N)nccn32)C1 [Linsitinib] (partner 1 µM)
Outline: as §1

Pemetrexed + Olaparib = compound: Nc1nc2[nH]cc(CCc3ccc(C(=O)N[C@@H](CCC(=O)O)C(=O)O)cc3)c2c(=O)[nH]1 [Pemetrexed] + O=C(c1cc(Cc2n[nH]c(=O)c3ccccc23)ccc1F)N1CCN(C(=O)C2CC2)CC1 [Olaparib] (partner 8 µM)
Outline: as §1

201T
relative viability (Pemetrexed + Luminespib; first compound 0.002 µM): 1.03 | relative viability (Pemetrexed + Luminespib; first compound 0.006325 µM): 1.04 | relative viability (Pemetrexed + Luminespib; first compound 0.02 µM): 1.05 | relative viability (Pemetrexed + Luminespib; first compound 0.06325 µM): 1.1 | relative viability (Pemetrexed + Luminespib; first compound 0.2 µM): 1.09 | relative viability (Pemetrexed + Lapatinib; first compound 0.002 µM): 0.977 | relative viability (Pemetrexed + Lapatinib; first compound 0.006325 µM): 1.04 | relative viability (Pemetrexed + Lapatinib; first compound 0.02 µM): 1.1 | relative viability (Pemetrexed + Lapatinib; first compound 0.06325 µM): 1.07 | relative viability (Pemetrexed + Lapatinib; first compound 0.2 µM): 1 | relative viability (Pemetrexed + Linsitinib; first compound 0.002 µM): 1.13 | relative viability (Pemetrexed + Linsitinib; first compound 0.006325 µM): 1.01 | relative viability (Pemetrexed + Linsitinib; first compound 0.02 µM): 1.1 | relative viability (Pemetrexed + Linsitinib; first compound 0.06325 µM): 1.09 | relative viability (Pemetrexed + Linsitinib; first compound 0.2 µM): 1.01 | relative viability (Pemetrexed + Olaparib; first compound 0.002 µM): 0.791 | relative viability (Pemetrexed + Olaparib; first compound 0.006325 µM): 0.85 | relative viability (Pemetrexed + Olaparib; first compound 0.02 µM): 0.841 | relative viability (Pemetrexed + Olaparib; first compound 0.06325 µM): 0.878 | relative viability (Pemetrexed + Olaparib; first compound 0.2 µM): 0.839

NCI-H1437
relative viability (Pemetrexed + Luminespib; first compound 0.006325 µM): 1.06 | relative viability (Pemetrexed + Luminespib; first compound 0.02 µM): 0.997 | relative viability (Pemetrexed + Luminespib; first compound 0.06325 µM): 0.856 | relative viability (Pemetrexed + Luminespib; first compound 0.2 µM): 0.487 | relative viability (Pemetrexed + Lapatinib; first compound 0.002 µM): 0.364 | relative viability (Pemetrexed + Lapatinib; first compound 0.006325 µM): 0.777 | relative viability (Pemetrexed + Lapatinib; first compound 0.02 µM): 0.799 | relative viability (Pemetrexed + Lapatinib; first compound 0.06325 µM): 0.463 | relative viability (Pemetrexed + Lapatinib; first compound 0.2 µM): 0.232 | relative viability (Pemetrexed + Linsitinib; first compound 0.002 µM): 0.898 | relative viability (Pemetrexed + Linsitinib; first compound 0.006325 µM): 0.965 | relative viability (Pemetrexed + Linsitinib; first compound 0.02 µM): 0.967 | relative viability (Pemetrexed + Linsitinib; first compound 0.06325 µM): 0.49 | relative viability (Pemetrexed + Linsitinib; first compound 0.2 µM): 0.252 | relative viability (Pemetrexed + Olaparib; first compound 0.002 µM): 0.619 | relative viability (Pemetrexed + Olaparib; first compound 0.006325 µM): 0.625 | relative viability (Pemetrexed + Olaparib; first compound 0.02 µM): 0.656 | relative viability (Pemetrexed + Olaparib; first compound 0.06325 µM): 0.54 | relative viability (Pemetrexed + Olaparib; first compound 0.2 µM): 0.385

A-427
relative viability (Pemetrexed + Luminespib; first compound 0.002 µM): 0.912 | relative viability (Pemetrexed + Luminespib; first compound 0.006325 µM): 0.923 | relative viability (Pemetrexed + Luminespib; first compound 0.02 µM): 0.968 | relative viability (Pemetrexed + Luminespib; first compound 0.06325 µM): 0.793 | relative viability (Pemetrexed + Luminespib; first compound 0.2 µM): 0.956 | relative viability (Pemetrexed + Lapatinib; first compound 0.002 µM): 0.974 | relative viability (Pemetrexed + Lapatinib; first compound 0.006325 µM): 1.06 | relative viability (Pemetrexed + Lapatinib; first compound 0.02 µM): 1.09 | relative viability (Pemetrexed + Lapatinib; first compound 0.06325 µM): 1.14 | relative viability (Pemetrexed + Lapatinib; first compound 0.2 µM): 0.819 | relative viability (Pemetrexed + Linsitinib; first compound 0.002 µM): 1.02 | relative viability (Pemetrexed + Linsitinib; first compound 0.006325 µM): 1.09 | relative viability (Pemetrexed + Linsitinib; first compound 0.02 µM): 1.08 | relative viability (Pemetrexed + Linsitinib; first compound 0.06325 µM): 1.13 | relative viability (Pemetrexed + Linsitinib; first compound 0.2 µM): 1.1 | relative viability (Pemetrexed + Olaparib; first compound 0.002 µM): 0.758 | relative viability (Pemetrexed + Olaparib; first compound 0.006325 µM): 0.765 | relative viability (Pemetrexed + Olaparib; first compound 0.02 µM): 0.775 | relative viability (Pemetrexed + Olaparib; first compound 0.06325 µM): 0.759 | relative viability (Pemetrexed + Olaparib; first compound 0.2 µM): 0.711

BEN
relative viability (Pemetrexed + Luminespib; first compound 0.002 µM): 0.491 | relative viability (Pemetrexed + Luminespib; first compound 0.006325 µM): 0.435 | relative viability (Pemetrexed + Luminespib; first compound 0.02 µM): 0.374 | relative viability (Pemetrexed + Luminespib; first compound 0.06325 µM): 0.484 | relative viability (Pemetrexed + Luminespib; first compound 0.2 µM): 0.559 | relative viability (Pemetrexed + Lapatinib; first compound 0.002 µM): 0.811 | relative viability (Pemetrexed + Lapatinib; first compound 0.006325 µM): 0.594 | relative viability (Pemetrexed + Lapatinib; first compound 0.02 µM): 0.817 | relative viability (Pemetrexed + Lapatinib; first compound 0.06325 µM): 0.663 | relative viability (Pemetrexed + Lapatinib; first compound 0.2 µM): 0.624 | relative viability (Pemetrexed + Linsitinib; first compound 0.002 µM): 0.855 | relative viability (Pemetrexed + Linsitinib; first compound 0.006325 µM): 0.84 | relative viability (Pemetrexed + Linsitinib; first compound 0.02 µM): 0.897 | relative viability (Pemetrexed + Linsitinib; first compound 0.06325 µM): 0.868 | relative viability (Pemetrexed + Linsitinib; first compound 0.2 µM): 0.731 | relative viability (Pemetrexed + Olaparib; first compound 0.002 µM): 1.07 | relative viability (Pemetrexed + Olaparib; first compound 0.006325 µM): 1.01 | relative viability (Pemetrexed + Olaparib; first compound 0.02 µM): 1.05 | relative viability (Pemetrexed + Olaparib; first compound 0.06325 µM): 0.97 | relative viability (Pemetrexed + Olaparib; first compound 0.2 µM): 0.891
